From paper PMC8648968 (The FEBS journal, 2021)
“Also recorded” adds a separate entry of the source. Where no end group is shown, it is not given here. [ ]: non-standard residue; d: D form. pS = N[C@@H](COP(=O)(O)O)C(=O)O

Columns and labels:
HCE cells = assay: Hst1 localization by immunofluorescence after DTG pretreatment; type: cell-based, human; conditions: pretreatment with escalating concentrations of DTG (Fig. S4)
full-length TMEM97 = full-length TMEM97 (Homo sapiens, UniProt Q5BJF2); assay: SPR, recombinant full-length TMEM97; type: binding; conditions: Biacore 8K, pH 7.4, 25 °C
GST-TMEM97 (108-176) = GST-TMEM97 (108-176) (Homo sapiens, UniProt Q5BJF2); assay: SPR, recombinant GST-TMEM97; type: binding; conditions: Biacore 8K, pH 7.4, 25 °C
[1] = biological target: synthetic TMEM97 (108-176) (Homo sapiens, UniProt Q5BJF2); assay: SPR, synthetic TMEM97; type: binding; conditions: Biacore 8K, pH 7.4, 25 °C
TMEM97 (108-176) = assay: Circular dichroism, secondary structure on mixing with TMEM97; type: binding; conditions: CD, pH 7.4, 0.05% DDM, room temperature
HSC70 = conditions: cited from earlier work
[2] = Circular dichroism, secondary structure of peptide alone in solution; type: physicochemical; conditions: CD, TMEM97 (108-176) alone, pH 7.4, 0.05% DDM, room temperature, DichroWeb
[3] = biological target: TMEM97 (S2R) overexpressed in HEK293T cell membranes (UniProt Q5BJF2 1-176); assay: radioligand binding
[4] = biological target: Recombinant GST-TMEM97 (108-176) (UniProt Q5BJF2 108-176); assay: SPR
[5] = biological target: Recombinant full-length TMEM97 (Sigma-2 receptor) (UniProt Q5BJF2 1-176); assay: SPR
[6] = biological target: T1, Synthetic TMEM97 (108-176); assay: SPR
T1 peptide: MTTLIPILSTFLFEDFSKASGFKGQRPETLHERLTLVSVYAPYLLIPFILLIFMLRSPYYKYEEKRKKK

Chain of full-length TMEM97 (Q5BJF2 whole entry): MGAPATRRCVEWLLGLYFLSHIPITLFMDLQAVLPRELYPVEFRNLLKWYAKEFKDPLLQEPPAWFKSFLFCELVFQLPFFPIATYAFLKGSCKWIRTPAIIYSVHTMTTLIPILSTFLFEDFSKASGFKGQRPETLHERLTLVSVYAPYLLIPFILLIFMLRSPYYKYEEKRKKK

## Cc1ccccc1NC(=N)Nc1ccccc1C [DTG, 1,3-di-o-tolylguanidine]
HCE cells
  Effect on Hst1 localization: Hst1 localization is reduced by pretreatment with DTG

## HYHKFHRYYDPGSNLYKEHNHGFHHGYKDEFRREpSRDS [Hst1SP]
full-length TMEM97
  Binding by SPR (in words): did not exhibit binding; also recorded: unable to bind
GST-TMEM97 (108-176)
  Binding by SPR (in words): did not exhibit binding; also recorded: unable to bind
[1]
  Binding by SPR (in words): did not bind
TMEM97 (108-176)
  Change of secondary structure on mixing with TMEM97 (108-176): did not induce increased secondary structural features; also recorded: did not induce increased secondary structural elements

## Hst3: histatin-3, histatin family peptide cited from Imamura et al. (DSHAKRHHGYKRKFHEKHHSHRGYRSNYLYDN; Histatin-3; UniProt P15516 20-51, looked up)
HSC70
  Interaction with HSC70: interact with, but not clearly directly bind

## MTTLIPILSTFLFEDFSKASGFKGQRPETLHERLTLVSVYAPYLLIPFILLIFMLRSPYYKYEEKRKKK [TMEM97 (108-176)]
[2]
  Turns content: 14%
  Unordered content: 17%
  β-strand content: 23%

## D[pS]HEKRHHGYRRKFHEKHHSHREFPFYGDYGSNYLYDN [Histatin-1 (Hst1)]
[3]
  Ki: 0.239 µM
[4]
  Kd: 6.6 µM
[5]
  Kd: 5.3 µM
[6]
  Kd: 6.3 µM
